# Patent publication US11760733B2, “Small molecule regulators of mitochondrial fusion and methods of use thereof” (Washington University, priority 2017, dated 2023)
# “Also recorded” adds a separate entry of the source.
# How the values were obtained:
# Mfn2 null MEFs = assay: Mitochondrial elongation (aspect ratio) fusogenicity assay; format: cell-based, mouse
# From the text: A cultured murine embryonic fibroblast assay system was used in which mitochondrial elongation (an increase in aspect ratio) reflects enhanced mitochondrial fusion.
# A pharmacophore model was generated based on the interactions of HR1 and HR2 domains in the calculated structural model of Mfn2 in the closed conformation. The key features included hydrophobic interactions involving Mfn2 HR1: Val372 and Met376, and aromatic interactions and hydrogen bonding involving Mfn2 HR1 His380. […] A library comprising ˜14 million commercially available compounds was prepared in silico and evaluated using PHASE to fit these criteria. Top ranked hits were clustered, and filtered based on pharmacological properties using Qikprop. The top 55 (see TABLE 4) commercially available small molecules conforming to the model were selected for functional screening and purchased in 1 mg aliquots. Each compound was dissolved to a stock concentration of 10 mM in DMSO and applied to Mfn2 null MEFs overnight at a final concentration of 1 mM. […] Images were acquired by confocal microscopy. Each compound was scored for fusogenicity (see e.g., FIG. 24A) and % cell death (see e.g., FIG. 24B).
# Wild-type MEFs were prepared from E10.5 c57/bl6 mouse embryos. […] MEFs were subcultured in DMEM (4.5 g/L glucose) plus 10% fetal bovine serum, 1× nonessential amino acids, 2 mM L-glutamine, 100U/ml penicillin and 100 ug/ml streptomycin.
# Cells were excited with 408 nm (Hoechst), […] (MitoTracker Green and Calcein AM, GFP), or 637 nm (TMRE, MitoTracker Orange, Ethidium homodimer-1, and AF594-Dextran) laser diodes. For mitochondrial elongation studies mitochondrial aspect ratio (long axis/short axis) was calculated using automated edge detection and Image J software. Mitochondrial depolarization was calculated as % of green mitochondria visualized on MitoTracker Green and TMRE merged images, expressed as green/(green+yellow mitochondria)×100.
# [1] = Liver microsome stability; format: in vitro ADME, human
# Experimental: (§1) Plasma protein binding was measured using equilibrium dialysis; % bound=(1−[free compound in dialysate]/[total compound in retentate])×100. Plasma stability of […] compound in clarified freeze-thawed plasma was assessed by LC-MS/MS of supernatants after protein precipitation; 120 min data are reported for studies including 0, 10, 30, 60, and 120 min. Microsome stability of […] compound in liver microsomes (0.5 mg/ml) after 0, 5, 10, 20, 30, 60 min. incubation was assessed by LC/MS/MS of reaction extracts.
# [2] = Parallel artificial membrane permeability assay (PAMPA); format: in vitro ADME
# P-gp/MDR1 = P-gp/MDR1 (Homo sapiens, UniProt P08183); assay: P-gp/MDR1 transport; format: in vitro ADME
# P-gp/MDR1, sequence (P08183 whole entry): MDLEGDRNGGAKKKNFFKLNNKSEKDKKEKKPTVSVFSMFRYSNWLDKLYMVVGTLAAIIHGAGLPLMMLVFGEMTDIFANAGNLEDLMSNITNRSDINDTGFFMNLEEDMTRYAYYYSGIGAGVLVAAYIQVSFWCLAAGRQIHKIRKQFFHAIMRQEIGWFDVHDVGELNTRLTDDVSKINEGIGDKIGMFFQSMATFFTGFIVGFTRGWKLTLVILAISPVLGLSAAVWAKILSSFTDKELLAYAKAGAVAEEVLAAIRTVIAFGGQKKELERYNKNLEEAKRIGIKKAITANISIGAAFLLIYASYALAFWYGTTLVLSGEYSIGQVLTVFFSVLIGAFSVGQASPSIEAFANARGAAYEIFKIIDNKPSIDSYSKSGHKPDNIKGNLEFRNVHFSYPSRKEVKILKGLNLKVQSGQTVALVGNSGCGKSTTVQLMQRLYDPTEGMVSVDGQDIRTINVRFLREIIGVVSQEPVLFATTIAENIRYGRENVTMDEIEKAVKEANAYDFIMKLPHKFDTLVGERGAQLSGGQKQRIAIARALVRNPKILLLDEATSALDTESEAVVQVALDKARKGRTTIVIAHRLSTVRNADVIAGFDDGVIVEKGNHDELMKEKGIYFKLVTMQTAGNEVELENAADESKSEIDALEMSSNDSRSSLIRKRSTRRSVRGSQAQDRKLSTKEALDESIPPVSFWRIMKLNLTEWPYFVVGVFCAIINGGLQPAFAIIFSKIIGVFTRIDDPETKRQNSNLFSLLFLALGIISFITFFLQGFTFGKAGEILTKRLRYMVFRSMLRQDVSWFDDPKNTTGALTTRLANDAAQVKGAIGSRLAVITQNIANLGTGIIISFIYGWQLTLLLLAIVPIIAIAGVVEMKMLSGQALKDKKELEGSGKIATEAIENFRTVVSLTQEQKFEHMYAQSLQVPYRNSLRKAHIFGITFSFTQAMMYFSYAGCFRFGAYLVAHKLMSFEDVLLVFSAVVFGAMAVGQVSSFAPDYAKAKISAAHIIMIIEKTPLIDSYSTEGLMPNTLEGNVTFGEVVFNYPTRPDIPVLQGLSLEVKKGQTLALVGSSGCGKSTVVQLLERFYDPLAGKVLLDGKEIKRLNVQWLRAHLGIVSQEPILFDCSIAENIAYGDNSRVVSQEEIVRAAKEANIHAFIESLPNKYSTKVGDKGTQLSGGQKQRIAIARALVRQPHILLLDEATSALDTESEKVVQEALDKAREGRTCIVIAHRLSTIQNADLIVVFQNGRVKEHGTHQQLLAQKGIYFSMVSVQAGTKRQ
# [3] = In vivo pharmacokinetics in mice; set-up: species or system mouse; conditions: 2 hours after IM administration, 1 mg/kg
# Experimental: (A) Three mice each were administered 1 mg/kg agonist IV, IP, or IM. Graphs are mean plasma concentration for each administration route. (B) Results for individual mice were administered 1 mg/kg indicated agonist IM.
# CMT2A MFN2 T105M mice = assay: In vivo sciatic nerve mitochondrial motility in CMT2A mice; set-up: species or system mouse; conditions: IM 2 mg/kg twice, assessed 4 hours later
# Experimental: Sciatic nerve mitochondrial motility was measured 4 hours later. Results described in FIG. 58 are for 2 CMT2A mice per group.
# [4] = test system: MFN2 T105M sciatic nerves; assay: Sciatic nerve axonal mitochondrial motility, agonist applied to nerve; conditions: MFN2 T105M mouse sciatic nerve
# Experimental: Sciatic nerves of 12-18 week old male or female MFN2 T105M mice were removed en bloc with the lumbar spine and axotomy at the tibial nerve, stained with TMEM ([…]) for 30 minutes in prewarmed Neurobasal Medium without phenol red (Thermo Fisher Scientific) at room temperature, washed, and maintained on the stage of a Nikon A1Rsi Confocal Microscope at 37 degrees C. for time-lapse confocal studies. Images were acquired with a 40× oil immersion objective at 1 frame every 5 or 10 seconds for sequential 10 minute periods. Mitofusin agonist chimera B-A/I was added after the first 10 minute imaging period (final concentrations of […]) and nerve axons imaged for another 40 minutes. Because there was no difference in mitochondrial trafficking or response to mitofusin agonist between male and female mice, the data were combined.
# [5] = Solubility in 50 mM phosphate buffer pH 7.4; format: physicochemical
# Plasma stability = format: in vitro ADME
# Experimental: as §1
# [6] = test system: Mfn1/Mfn2 double null MEFs; assay: Mitochondrial elongation in Mfn1/Mfn2 double null MEFs; format: cell-based, mouse
# [7] = test system: MFN2 Asp378 and Ala378 mutants; assay: Mitochondrial fusion in cells expressing MFN2 Ser378 mutants; format: cell-based, human; conditions: phosphomimic Asp378 vs nonphosphorylatable Ala378
# From the text: On the basis of fluorescence resonance energy transfer (FRET) analysis of MFN2 labeled at the N and C termini, mitofusin agonists promoted an open MFN2 conformation favoring mitochondrial fusion, with a rank order paralleling that for HR2 binding and mitochondrial fusion (see e.g., FIG. 11G; compare to FIG. 11B and FIG. 11C), supporting allosteric activation.
# Human Mfn2 Ser378 was mutated to Ala or Asp by site-directed mutagenesis using the QuikChange Lightning kit (Agilent Technologies Inc.) and primers: […]
# Mfn2 and its mutants were sub-cloned into adenoviral vector Type 5 (dE1/E3) with RGD-fiber modification (Vector Biolabs) using BamHI/XhoI. All constructs were verified by Sanger DNA sequencing. Adeno-viral PINK1 was purchased from Vector Biolabs.
# Mfn2 HR2 target peptide = target: T1, Mfn2 HR2 target peptide (Homo sapiens, UniProt O95140); assay: HR1 peptide-HR2 target binding assay; conditions: in vitro binding assay devoid of cellular kinases
# T1 construct: Gly linker (GGGG after the His tag)
# T1 sequence (O95140 with tags, fused parts or gaps limits assumed): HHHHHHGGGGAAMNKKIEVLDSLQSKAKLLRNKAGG
# From the text: The Mfn-derived fusion-promoting and -inhibiting mini-peptides (simulated to obtain the chemical Mfn agonists in TABLE 1 and TABLE 2) were modified from amino acid heptad repeats (HR) in the HR1 domain and predicted to interact with their counterparts in the carboxyl terminus HR2 domain within the Mfn stalk region (see e.g., FIG. 1, top panel). A high-throughput binding assay was designed whereby the target HR2 peptide sequences, modified to include amino terminal 6×His tags and Gly linkers, were bonded to Ni-chelate resin (20 μg/ml) and used as immobilized “receptor” for amino-FITC-tagged Mfn2 374-384 (agonist ligand) in which the Ser analogous to Ser378 was replaced with Asp to confer the negative charge essential for activity. For antagonist studies the ligand was amino-FITC-tagged Mfn2 406-418. The FITC peptide ligands are suspended at 1 mM in 30% DMSO, 70% water (to minimize spontaneous aggregation) and diluted into binding buffer (de-ionized water) to a final concentration of 25 μM in the presence or absence of competing compound. Dose-dependent loss of resin-bound FITC signal (485 nm excitation/538 nm emission) measured in a 96 well spectrofluorometer represents binding of compound to its HR2 target (see e.g., FIG. 10, FIG. 11). Either the ligand peptide or the receptor peptide can be modified to represent mutations, variations, or posttranslational modifications of Mfn2. […]
# Target HR2 peptide sequence modified to include amino terminal 6×His tags and Gly linkers, were bonded to Ni-NTA resin (4.4 μg/ml) (Quiagen) and used as immobilized “receptor” for amino-FITC-tagged Mfn2 374-384 (ligand) in which the Ser analogous to Ser378 was replaced with Asp to confer the negative charge essential for activity. […] Resin-bound FITC signal (485 nm excitation/538 nm emission) measured in a 96 well spectrofluorometer (Spectramax M5e, Molecular Devices) represented binding to HR2 target. Competition binding isotherms were plotted and IC50 values calculated using Prism 7 (Graph Pad).
molecule,measurement,setting,value
"Cn1c(SCC(=O)Nc2sc3c(c2C(N)=O)CCC3)nnc1-c1ccccc1 [1-61, 2-{2-[(4-methyl-5-phenyl-4H-1,2,4-triazol-3-yl)sulfanyl]acetamido}-4H,5H,6H-cyclopenta[b]thiophene-3-carboxamide]","potency relative to other compounds, in words",Mfn2 null MEFs,more potent
same,"liver microsome stability, in words",[1],greater resistance to liver microsomal degradation
"CCn1c(SCC(=O)Nc2sc3c(c2C(N)=O)CCC3)nnc1C1CC1 [1-G11, 2-{2-[(5-cyclopropyl-4-ethyl-4H-1,2,4-triazol-3-yl)sulfanyl]acetamido}-4H,5H,6H-cyclopenta[b]thiophene-3-carboxamide]","potency relative to other compounds, in words",Mfn2 null MEFs,more potent
same,"liver microsome stability, in words",[1],greater resistance to liver microsomal degradation
"CCn1c(CCCNC(=O)NC2CCOCC2)nnc1C1CC1 [Mitolityn-4, 1-(3-(5-cyclopropyl-4-ethyl-4H-1,2,4-triazol-3-yl)propyl)-3-(tetrahydro-2H-pyran-4-yl)urea]","potency relative to other compounds, in words",Mfn2 null MEFs,highest potency
same,"liver microsome stability, in words",[1],stability in the liver microsome assay
same,"passive diffusion across lipid-infused artificial membrane (PAMPA), in words",[2],no passive diffusion across lipid membrane
same,"P-gp/MDR1 transport, in words",P-gp/MDR1,no reverse transport by P-gp
"Cn1c(CCCNC(=O)NC2CCOCC2)nnc1C1CC1 [Mitolityn-6, 1-(3-(5-cyclopropyl-4-methyl-4H-1,2,4-triazol-3-yl)propyl)-3-(tetrahydro-2H-pyran-4-yl)urea]","potency relative to other compounds, in words",Mfn2 null MEFs,highest potency
same,"liver microsome stability, in words",[1],stability in the liver microsome assay
"CC1CCCCC1NC(=O)NCCCc1nnc(C2CC2)n1-c1ccccc1 (centres unmarked) [Regeneurin-C, 1-(3-(5-cyclopropyl-4-phenyl-4H-1,2,4-triazol-3-yl)propyl)-3-(2-methylcyclohexyl)urea]","passive diffusion across lipid-infused artificial membrane (PAMPA), in words",[2],excellent passive diffusion
same,"P-gp/MDR1 transport, in words",P-gp/MDR1,actively transported by P-gp/MDR1
same,total plasma drug concentration,[3],undetectable
"O=C(NCCCc1nnc(C2CC2)n1-c1ccccc1)NC1CCOCC1 [Regeneurin-C/O, 1-(3-(5-cyclopropyl-4-phenyl-4H-1,2,4-triazol-3-yl)propyl)-3-(tetrahydro-2H-pyran-4-yl)urea]",sciatic nerve axon mitochondrial motility in vivo,CMT2A MFN2 T105M mice,corrects CMT2A neuronal mitochondrial dymotility in vivo; also recorded: reverses the characteristic mitochondrial immobility in sciatic nerve axons
CC1CCCCC1NC(=O)NCCSc1nnc(C2CC2)n1-c1ccccc1 (centres unmarked) [Regeneurin-S],sciatic nerve axonal mitochondrial motility,[4],rapidly correct mitochondrial dysmotility
same,"solubility, in words",[5],soluble
same,"plasma stability, in words",Plasma stability,stable in plasma
same,"liver microsome stability, in words",[1],rapid degradation; also recorded: rapidly degraded by liver microsomes
"CC1CCCCC1NC(=O)NCCSCc1ccccc1 (centres unmarked) [compound A, 1-[2-(benzylsulfanyl)ethyl]-3-(2-methylcyclohexyl)urea]","fusogenic activity (mitochondrial elongation), in words",Mfn2 null MEFs,induced mitochondrial elongation
same,mitochondrial elongation in absence of both mitofusins,[6],did not occur
same,selectivity of fusogenic effect for MFN2 Ser378 mutants,[7],specific for the Asp^378 mutant
"Ala^378 minipeptide: MFN2 374-384 minipeptide in which ""Ser^378 was substituted (with Ala, Cys, Asn or Gly)"": the Ala variant (LIMDALHMAAR; UniProt O95140 374-384, looked up, variant S378A)",binding of minipeptide to HR2 interacting domain,Mfn2 HR2 target peptide,did not
"Ser^378 minipeptide: ""smallest fusion promoting minipeptide (residues 374 to 384)"" of MFN2 HR1, with unsubstituted Ser^378 (LIMDSLHMAAR; UniProt O95140 374-384, looked up, fragment)",binding of minipeptide to HR2 interacting domain,Mfn2 HR2 target peptide,did not
